Tests used:
[1] = biological target: T1, B1R receptor of rats (rB1R) (Rattus norvegicus, UniProt P97583); assay: FLIPR Ca2+ assay on rat bradykinin 1 receptor (CHO K1 rB1R cells); assay type: cell-based; conditions: test substance 10 μM; CHO K1 cells with B1R gene of rats; agonist Des-Arg9-bradykinin 100 nM; compared to maximum achievable inhibition
T1 construct: host or cells: CHO K1 cells
T1 sequence (P97583 1-337): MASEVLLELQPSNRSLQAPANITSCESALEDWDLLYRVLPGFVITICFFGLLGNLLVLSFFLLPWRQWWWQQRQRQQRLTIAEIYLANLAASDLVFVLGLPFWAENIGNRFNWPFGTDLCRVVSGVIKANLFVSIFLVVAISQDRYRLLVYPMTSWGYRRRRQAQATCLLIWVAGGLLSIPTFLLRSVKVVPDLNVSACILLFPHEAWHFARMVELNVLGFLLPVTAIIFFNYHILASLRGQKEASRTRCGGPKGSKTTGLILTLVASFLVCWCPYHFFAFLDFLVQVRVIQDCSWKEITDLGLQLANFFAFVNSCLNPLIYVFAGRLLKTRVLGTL
Summary of the method: (§1)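 CHO K1 cells stably expressing human or rat B1R were loaded with Fluo-4 and tested at 10 μM compound. Ca²⁺ signal was read in FLIPR as % activation versus agonist. After 10 min, agonist was added (hB1R: Lys-Des-Arg9-bradykinin 0.5 nM; rB1R: Des-Arg9-bradykinin 100 nM), and % inhibition was taken relative to maximum achievable inhibition.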

[2] = biological target: T2, human B1R receptor (hB1R) (Homo sapiens, UniProt P46663); assay: FLIPR Ca2+ assay on human bradykinin 1 receptor (CHO K1 hB1R cells); assay type: cell-based; conditions: test substance 10 μM; CHO K1 cells with human B1R gene; agonist Lys-Des-Arg9-bradykinin 0.5 nM; compared to maximum achievable inhibition
T2 construct: host or cells: CHO K1 cells
T2 sequence (P46663 1-353): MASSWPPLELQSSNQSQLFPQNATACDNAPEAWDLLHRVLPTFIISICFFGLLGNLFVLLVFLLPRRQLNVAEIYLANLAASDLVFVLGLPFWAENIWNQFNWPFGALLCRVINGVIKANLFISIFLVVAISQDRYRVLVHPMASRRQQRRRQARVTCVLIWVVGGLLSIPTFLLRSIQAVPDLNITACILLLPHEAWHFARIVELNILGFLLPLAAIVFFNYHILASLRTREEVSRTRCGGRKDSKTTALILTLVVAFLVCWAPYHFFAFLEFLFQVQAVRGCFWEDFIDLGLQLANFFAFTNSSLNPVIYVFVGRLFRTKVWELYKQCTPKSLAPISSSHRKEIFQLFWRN
Summary of the method: as §1

SMILES	inhibition at 10 µM [1] [%]	inhibition at 10 µM [2] [%]
CCC1c2cccn2CCN1C(=O)COCCN(CC(C)C)S(=O)(=O)c1c(C)cc(OC)c(C)c1C (stereo not drawn) [Example 100, N-(2-(2-(1-ethyl-3,4-dihydropyrrolo[1,2-a]pyrazin-2(1H)-yl)-2-oxoethoxy)ethyl)-N-isobutyl-4-methoxy-2,3,6-trimethylbenzenesulfonamide]	103	98
CCCC1c2cccn2CCN1C(=O)COCCN(CC(C)C)S(=O)(=O)c1c(C)cc(OC)c(C)c1C (stereo not drawn) [Example 101, N-isobutyl-4-methoxy-2,3,6-trimethyl-N-(2-(2-oxo-2-(1-propyl-3,4-dihydropyrrolo[1,2-a]pyrazin-2(1H)-yl)ethoxy)ethyl)benzenesulfonamide]	102	91
COc1cc(C)c(S(=O)(=O)N(CCOCC(=O)N2CCn3cccc3C2C(C)C)CC(C)C)c(C)c1C (stereo not drawn) [Example 102, N-isobutyl-N-(2-(2-(1-isopropyl-3,4-dihydropyrrolo[1,2-a]pyrazin-2(1H)-yl)-2-oxoethoxy)ethyl)-4-methoxy-2,3,6-trimethylbenzenesulfonamide]	102	96
CCC1c2ccc(C)n2CCN1C(=O)COCCN(CC(C)C)S(=O)(=O)c1c(C)cc(OC)c(C)c1C (stereo not drawn) [Example 103, N-(2-(2-(1-ethyl-6-methyl-3,4-dihydropyrrolo[1,2-a]pyrazin-2(1H)-yl)-2-oxoethoxy)ethyl)-N-isobutyl-4-methoxy-2,3,6-trimethylbenzenesulfonamide]	102	101
COc1cc(C)c(S(=O)(=O)N(CCOCC(=O)N2CCn3c(C)ccc3C2C(C)C)CC(C)C)c(C)c1C (stereo not drawn) [Example 104, N-isobutyl-N-(2-(2-(1-isopropyl-6-methyl-3,4-dihydropyrrolo[1,2-a]pyrazin-2(1H)-yl)-2-oxoethoxy)ethyl)-4-methoxy-2,3,6-trimethylbenzenesulfonamide]	102	93
COc1c(C)cc(S(=O)(=O)N(C)CCOCC(=O)N2CCn3c(CN(C)C)ccc3C2c2ccccc2)c(C)c1C (stereo not drawn) [Example 105, N-(2-(2-(6-((dimethylamino)methyl)-1-phenyl-3,4-dihydropyrrolo[1,2-a]pyrazin-2(1H)-yl)-2-oxoethoxy)ethyl)-4-methoxy-N,2,3,5-tetramethylbenzene-sulfonamide]	100	100
COc1c(C)cc(S(=O)(=O)N(C)CCOCC(=O)N2CCn3c(CN4CCCC4)ccc3C2c2ccccc2)c(C)c1C (stereo not drawn) [Example 106, 4-methoxy-N,2,3,5-tetramethyl-N-(2-(2-oxo-2-(1-phenyl-6-(pyrrolidin-1-ylmethyl)-3,4-dihydropyrrolo[1,2-a]pyrazin-2(1H)-yl)ethoxy)ethyl)benzene-sulfonamide]	101	99
COc1c(C)cc(S(=O)(=O)N(C)CCOCC(=O)N2CCn3c(CN4CCCCC4)ccc3C2c2ccccc2)c(C)c1C (stereo not drawn) [Example 107, 4-methoxy-N,2,3,5-tetramethyl-N-(2-(2-oxo-2-(1-phenyl-6-(piperidin-1-ylmethyl)-3,4-dihydropyrrolo[1,2-a]pyrazin-2(1H)-yl)ethoxy)ethyl)benzene-sulfonamide]	102	98
COc1c(C)cc(S(=O)(=O)N(C)CCOCC(=O)N2CCn3c(CN4CCOCC4)ccc3C2c2ccccc2)c(C)c1C (stereo not drawn) [Example 108, 4-methoxy-N,2,3,5-tetramethyl-N-(2-(2-(6-(morpholinomethyl)-1-phenyl-3,4-dihydropyrrolo[1,2-a]pyrazin-2(1H)-yl)-2-oxoethoxy)ethyl)benzenesulfonamide]	102	102
COc1c(C)cc(S(=O)(=O)N(C)CCOCC(=O)N2CCn3c(CN(C)C)ccc3C2Cc2ccccc2)c(C)c1C (stereo not drawn) [Example 109, N-(2-(2-(1-benzyl-6-((dimethylamino)methyl)-3,4-dihydropyrrolo[1,2-a]pyrazin-2(1H)-yl)-2-oxoethoxy)ethyl)-4-methoxy-N,2,3,5-tetramethylbenzene-sulfonamide]	101	102
COc1c(C)cc(S(=O)(=O)N(C)CCOCC(=O)N2CCn3c(CN(C)C)ccc3C2CCc2ccccc2)c(C)c1C (stereo not drawn) [Example 110, N-(2-(2-(6-((dimethylamino)methyl)-1-phenethyl-3,4-dihydropyrrolo[1,2-a]pyrazin-2(1H)-yl)-2-oxoethoxy)ethyl)-4-methoxy-N,2,3,5-tetramethylbenzene-sulfonamide]	100	103
CCCCC1c2ccc(CN(C)C)n2CCN1C(=O)COCCN(C)S(=O)(=O)c1cc(C)c(OC)c(C)c1C (stereo not drawn) [Example 111, N-(2-(2-(1-butyl-6-((dimethylamino)methyl)-3,4-dihydropyrrolo[1,2-a]pyrazin-2(1H)-yl)-2-oxoethoxy)ethyl)-4-methoxy-N,2,3,5-tetramethylbenzene-sulfonamide]	100	100
COc1c(C)cc(S(=O)(=O)N(C)CCOCC(=O)N2CCn3c(CN(C)C)ccc3C2c2cccs2)c(C)c1C (stereo not drawn) [Example 112, N-(2-(2-(6-((dimethylamino)methyl)-1-(thiophen-2-yl)-3,4-dihydropyrrolo[1,2-a]pyrazin-2(1H)-yl)-2-oxoethoxy)ethyl)-4-methoxy-N,2,3,5-tetramethylbenzene-sulfonamide]	101	101
CCC1c2ccc(CN(C)C)n2CCN1C(=O)COCCN(C)S(=O)(=O)c1cc(C)c(OC)c(C)c1C (stereo not drawn) [Example 113, N-(2-(2-(6-((dimethylamino)methyl)-1-ethyl-3,4-dihydropyrrolo[1,2-a]pyrazin-2(1H)-yl)-2-oxoethoxy)ethyl)-4-methoxy-N,2,3,5-tetramethylbenzenesulfonamide]	93	103
CCC1c2cccn2CCN1C(=O)COCCN(C)S(=O)(=O)c1cc(C)c(OC)c(C)c1C (stereo not drawn) [Example 114, N-(2-(2-(1-ethyl-3,4-dihydropyrrolo[1,2-a]pyrazin-2(1H)-yl)-2-oxoethoxy)ethyl)-4-methoxy-N,2,3,5-tetramethylbenzenesulfonamide]	42	80
CCCC1c2cccn2CCN1C(=O)COCCN(C)S(=O)(=O)c1cc(C)c(OC)c(C)c1C (stereo not drawn) [Example 115, 4-methoxy-N,2,3,5-tetramethyl-N-(2-(2-oxo-2-(1-propyl-3,4-dihydropyrrolo[1,2-a]pyrazin-2(1H)-yl)ethoxy)ethyl)benzenesulfonamide]	97	91
COc1cc(C)c(S(=O)(=O)N(CCOCC(=O)N2CCn3c(CN4CCCC4)ccc3C2c2ccccc2)Cc2ccccc2)c(C)c1C (stereo not drawn) [Example 116, N-benzyl-4-methoxy-2,3,6-trimethyl-N-(2-(2-oxo-2-(1-phenyl-6-(pyrrolidin-1-ylmethyl)-3,4-dihydropyrrolo[1,2-a]pyrazin-2(1H)-yl)ethoxy)ethyl)benzene-sulfonamide]	102	103
COc1cc(C)c(S(=O)(=O)N(CCOCC(=O)N2CCn3c(CN4CCOCC4)ccc3C2c2ccccc2)Cc2ccccc2)c(C)c1C (stereo not drawn) [Example 117, N-benzyl-4-methoxy-2,3,6-trimethyl-N-(2-(2-(6-(morpholinomethyl)-1-phenyl-3,4-dihydropyrrolo[1,2-a]pyrazin-2(1H)-yl)-2-oxoethoxy)ethyl)benzene-sulfonamide]	88	82
COc1cc(C)c(S(=O)(=O)N(CCOCC(=O)N2CCn3c(CN(C)C)ccc3C2Cc2ccccc2)Cc2ccccc2)c(C)c1C (stereo not drawn) [Example 118, N-benzyl-N-(2-(2-(1-benzyl-6-((dimethylamino)methyl)-3,4-dihydropyrrolo[1,2-a]pyrazin-2(1H)-yl)-2-oxoethoxy)ethyl)-4-methoxy-2,3,6-trimethylbenzene-sulfonamide]	96	96
COc1cc(C)c(S(=O)(=O)N(CCOCC(=O)N2CCn3c(CN(C)C)ccc3C2CCc2ccccc2)Cc2ccccc2)c(C)c1C (stereo not drawn) [Example 119, N-benzyl-N-(2-(2-(6-((dimethylamino)methyl)-1-phenethyl-3,4-dihydropyrrolo-[1,2-a]pyrazin-2(1H)-yl)-2-oxoethoxy)ethyl)-4-methoxy-2,3,6-trimethylbenzene-sulfonamide]	54	52
CCCCC1c2ccc(CN(C)C)n2CCN1C(=O)COCCN(Cc1ccccc1)S(=O)(=O)c1c(C)cc(OC)c(C)c1C (stereo not drawn) [Example 120, N-benzyl-N-(2-(2-(1-butyl-6-((dimethylamino)methyl)-3,4-dihydropyrrolo[1,2-a]pyrazin-2(1H)-yl)-2-oxoethoxy)-ethyl)-4-methoxy-2,3,6-trimethyl-benzenesulfonamide]	92	84

Source: patent US8263598B2, “Substituted sulfonamide compounds” (Gruenenthal GmbH, priority 2008, dated 2012)
